# Assay results from publication PMC11683478, “Bioprospecting of culturable marine biofilm bacteria for novel antimicrobial peptides” (iMeta, 2024).
# Where no end group is shown, it is not given here.
# Experiments:
# [1] = system: eight pathogenic bacterial strains; experiment: MIC, panel statement; assay type: cell-based; conditions: panel of eight strains, CAMHB, 37°C
# Description: Eight bacterial strains were utilized in the antibacterial experiment. S. aureus ATCC 12600, B. subtilis ATCC 23857, E. coli ATCC 11775, and A. baumannii ATCC 19606 were purchased from Shanghai Beinuo Biology. M. luteus ATCC 4698 and S. bongori ATCC43975 were purchased from Shanghai Beisi Biotechnology. V. owensii ems001 and V. alginolyticus xv22 from the intestines of diseased shrimps were isolated in our laboratory. All strains were cultured in the cation‐adjusted Mueller‐Hinton broth (CAMHB) at 37°C to the logarithmic growth phase (OD600 = 0.5). Then, bacteria were gradient‐diluted using fresh CAMHB to a bacterial density of 5 × 10^5 CFU/mL. Antibacterial experiments were performed in a 96‐well plate with 200 μg/mL final peptide concentration. Four experimental groups were set up, including a blank control (200 μL CAMHB), a negative control (180 μL CAMHB plus 20 μL peptide), a positive control (180 μL bacterial culture plus 20 μL ultrapure water), and an experimental group (180 μL bacterial culture plus 20 μL peptide). Three biological replicates were conducted for each group, and OD600 values were measured after incubation at 37°C for 12 h. Every observed value was removed from the blank control group value. […] The MIC of a peptide against a bacterium was determined as the minimum peptide concentration at which there was no visible bacterial growth.
# [2] = system: sheep red blood cells; conditions: red cells of sheep, 1 h
# Description: Freshly collected sheep blood was centrifuged at 3000 rpm for 10 min, and the supernatant was removed. The pellet was washed and resuspended with normal saline water to produce a 2% blood cell solution. Then, 400 μL of peptide solution was added to 100 μL of 2% blood cell solution to achieve final peptide concentrations of 8, 16, 32, 64, and 128 μg/mL. Normal saline water and Triton X‐100 normal saline solution (2%) were used as negative and positive controls, respectively. The samples were incubated in a water bath at 37°C for 1 h, followed by centrifugation at 3000 rpm for 10 min. Then, 200 μL of the supernatant was transferred to a 96‐well plate, and OD values were measured at a wavelength of 545 nm. The hemolysis rate of each sample was calculated using the following formula: Hemolysis ratio=OD545(experimental)−OD545(negative control)/OD545(positive control)−OD545(negative control)×100%.
# [3] = system: human normal colon epithelial cells (NCM-460); assay type: cell-based; conditions: 48 h
# Description: Human normal colon epithelial cells (NCM‐460) were purchased from the BeNa Culture Collection. Cytotoxicity was measured using the 3‐[4,5‐dimethylthiazol‐2‐yl]−2,5 diphenyl tetrazolium bromide (MTT) assay. The NCM‐460 cells were cultured in the Dulbecco's modified Eagle's medium (DMEM)‐H complete culture medium (90% DMEM‐H, 10% FBS, 10,000 U/mL penicillin, and 10,000 μg/mL streptomycin) to logarithmic growth phase. The suspension of cells was prepared at 10^5 cells/100 μL/well in a 96‐well plate. The peptides selected for the assay were dissolved in the DMEM‐H medium to prepare a 25 mg/mL stock solution, diluted for multiple gradients of 4–512 μg/mL. Afterwards, the peptides that had been diluted (100 μL/well) were introduced into the cells residing on a 96‐well plate. The DMEM‐H medium served as the blank group, the cell suspension as the control group, and the cell suspension combined with the peptide as the experimental group. Each group was conducted in three separate replicates. After 48 h of culture, 10 μL MTT was added to each well and incubated further at 37°C for 4 h. Then 100 μL Formazan solution was added and incubated further at 37°C for 4 h until all the purple crystals were dissolved. The absorbances were measured at OD570. Cell viability was determined by calculating cell viability using the following formula. Cell viability=OD570(experimental)−OD570(blank)/OD570(control)−OD570(blank)×100%.
# Then, the CC50 value of each AMP molecule was calculated using an online tool: https://www.aatbio.com/tools/ic50-calculator.
sequence,measurement,setting,value
MSRSLRNLLKYVWVKVKGE [Cand-217],MIC against nearly all strains,[1],≤ 32 µg/mL
same,Hemolysis ratio (%) at 8μg/mL,[2]; 8,2.490%
same,Hemolysis ratio (%) at 16μg/mL,[2]; 16,2.604%
same,Hemolysis ratio (%) at 32μg/mL,[2]; 32,4.447%
same,Hemolysis ratio (%) at 64μg/mL,[2]; 64,9.600%
same,Cytotoxicity CC50,[3],25.740 µg/mL
